# Source: patent US20050244413A1, “Compositions and methods for treating cancer using cytotoxic CD44 antibody immunoconjugates and chemotherapeutic agents” (priority 2002, published 2005)
# Assays:
# Type in all cases: in vivo, mouse
# FaDuDD tumors [1] = test: BIWI 1 combination with docetaxel in nude mice xenografted with FaDuDD tumors
# Method: (§1) The antibody solution was injected into the tail vein with an injection volume of 200 μl for a 25 g mouse. In the control groups without BIWI 1 treatment animals were injected i.v. with PBS. […] The solution was injected into the tail vein with an injection volume of 200 μl for a 25 g mouse. […] The solution was injected into the tail vein with an injection volume of 200 μl for a 25 g mouse.
# (§2) Tumor sizes and body weights were recorded 2-3 times per week. Tumor sizes were measured with a calliper (length and width) and the volume was calculated according to the following formula: volume (length)×(width)^2×([…]). The tolerability of the treatment was monitored by measuring mouse weight during the whole observation period. […] For calculation of the mean tumor volumes per group, the last values of tumor size for individual animals were carried forward in case that these animals had to be sacrificed due to large tumor burden before the whole group was terminated. In addition to the absolute tumor volume in mm^3, the relative tumor volumes (RTV) were calculated as follows:
# (§3) RTV=(tumor volume at day x)/(tumor volume at start of treatment)×100 For the evaluation of treatment efficacy the following parameters were calculated: • T/C (%)=(mean RTV of treated group)/(mean RTV of control group)×100 • T4T (tumor quadrupling time)=time until the mean RTV reaches 400% • GDF4 (growth delay factor)=T4T treated/T4T control.
# (§4) In addition, for some experiments, the mean time for tumors to reach 8 times (T8T) their initial sizes were also calculated. The growth delay factor (GDF8) was then calculated accordingly. Percentages of mean relative tumor volumes of treated versus control groups (T/C) were calculated on the days indicated. For statistical evaluation of combination therapies exact Wilcoxon tests were used. Tolerability was assessed by monitoring body weight changes.
# To assess the efficacy of BIWI 1 in combination with the taxane docetaxel (Taxotere), non-curative doses of both drugs were tested as single agents or in combination in nude mice xenografted with FADuDD tumors. In pilot experiments a dose of 3 mg/kg docetaxel (q7dx4) was determined to be non-curative in this model. BIWI 1 was used at the non-curative dose of 200 μg/kg DM 1 and at a somewhat higher dose (300 μg/kg DM1).
# The effect was somewhat more pronounced in the two BIWI 1 monotherapy treatment groups with T/C 41-30% and GDF4: 2.8-4.4. Complete tumor regression could be observed in 1/8 cases with the higher BIWI 1 dose. […] Treatment was well tolerated in all groups, except for a slight unexplained weight loss (approx. −5%) in the docetaxel monotherapy group.
# MDA-MB-453 tumors = test: BIWI 1 combination with capecitabine in nude mice xenografted with MDA-MB-453 tumors; conditions: BIWI 1 75 μg/kg DM1 i.v. q7dx3
# Method: The xenograft model MDA-MB-453 was handled as in Section 2.8.
# BIWI 1 solution (protein concentration 2.95 mg/ml, 53.6 μg DM1/ml, 3.7 molecules DM1/molecule antibody) was diluted in PBS to a DM1 concentration of 75 μg/kg body weight. […] The antibody solution was injected into the tail vein with an injection volume of 200 μl for a 25 g mouse. In the control groups without BIWI 1 treatment animals were injected i.v. with PBS. BIWI 1 was given i.v. into the tail vein at a dose of 75 μg DM1/kg once weekly, for three weeks. Capecitabine (150 mg tablets, Roche) was given intragastrically (by gavage needle, as a suspension in water) at a dose of 375 or 500 mg/kg during three weeks on 5 consecutive days per week.
# To assess the efficacy of BIMI 1 in combination with capecitabine, non-curative doses of both drugs were tested as single agents or in combination in nude mice xenografted with MDA-MB453 tumors.
# For the combinations experiments BIWI 1 with 75 μg/kg DM1 was combined with 375 or 500 mg/kg capecitabine.
# FaDu tumors = test: BIWI 1 combination therapy with paclitaxel in the FaDu xenograft model
# Method: In vivo anti-tumor efficacy of BIWI 1 was tested in three nude mouse xenograft models applying antigen-positive human tumors: A431 (ATCC # CRL 1555; epidermoid carcinoma of the vulva), FaDu (ATCC # HTB 43; squamous cell carcinoma of the pharynx), and MDA-MB 453 (ATCC # HTB-131; breast carcinoma). The cells were received from ATCC and cultured in RPMI1640 medium containing 10% fetal calf serum and supplements. 1×10^6 tumors cells were transplanted subcutaneously into the right flank of 6 week old female NMRI-nu/nu mice. Tumor growth was monitored by measuring tumor size. A tumor response was rated as complete response when the tumor completely disappeared at any time after start of treatment. The response was rated as partial response when the tumor volume decreased after treatment but thereafter started regrowing. The tolerability of the treatment was monitored by measuring mouse weight during the observation period.
# Mice were randomised into the following treatment groups (treatment/initial mean tumor volume/tumor volume range/number of mice): • Group 1: Control (PBS)/197 mm^3/65-402 mm^3/8 mice • Group 2: Paclitaxel/182 mm^3 /65%-302 mm^3/8 mice • Group 3: BIWI 1/208 mm^3 /65-382 mm^3/8 mice • Group 4: BIWI 1+paclitaxel/159 mm^3 /79-335 mm^3 /7 mice
# Treatment consisted either of five i.v. injections of BIWI 1 (7 mg/kg corresponding to 100 μg/kg DM1) at day 1, 3, 5, 8, 10, or of six i.p. injections of paclitaxel (10 mg/kg) at day 2, 4, 6, 9, 11, 13, respectively, or a combination thereof. Control animals were treated with PBS.
# One tumor completely dissappeared during treatment and the animal remained tumor free until the end of the observation period.
# FaDuDD tumors [2] = test: BIWI 1 combination with cisplatin in nude mice xenografted with FaDuDD tumors
# Method: as §1, §2, §3, §4
# A different set of experiments was done with cisplatin. In a pilot experiment, a dose of 4 mg/kg cisplatin administered i.v. four times in weekly intervals was determined to be non-curative in this model, and also represents the maximum tolerated dose in the mouse strain used. This dose of cisplatin was combined with BIWI 1 at the non-curative doses of 200 μg/kg DM1 and 300 Ag/kg DM1 already used in the previous experiment. […] In the latter combination group 2/8 complete tumor regressions could be observed. […] Treatment was well tolerated in all groups.
# [3] = BIWI 1 200 μg/kg DM1 i.v. q7dx4
# [4] = BIWI 1 300 μg/kg DM1 i.v. q7dx4
# [5] = BIWI 1 7 mg/kg i.v. x5, paclitaxel 10 mg/kg i.p. x6, or both
substance,measurement,setting,value
BIWI 1,GDF4,FaDuDD tumors [1]; [3],2.8
same,T4T,FaDuDD tumors [1]; [3],20.1 days
same,T/C (d 16),FaDuDD tumors [1]; [3],41%
same,complete tumor regression,FaDuDD tumors [1]; BIWI 1 300 μg/kg DM1 (higher dose) q7dx4,1/8
same,GDF4,FaDuDD tumors [1]; [4],4.4
same,T4T,FaDuDD tumors [1]; [4],31.1 days
same,T/C (d 16),FaDuDD tumors [1]; [4],30%
same,GDF4,MDA-MB-453 tumors,2.6
same,T4T,MDA-MB-453 tumors,26.9 days
same,T/C (d25),MDA-MB-453 tumors,31%
same,Initial Tumor Doubling Time,"FaDu tumors; BIWI 1 7 mg/kg i.v. day 1,3,5,8,10, paclitaxel 10 mg/kg i.p. day 2,4,6,9,11,13, or both",7 days
same,Complete Regression,FaDu tumors; [5],0/8
same,Growth Delay Factor,FaDu tumors; [5],0.75
same,partial response,FaDu tumors; BIWI 1 monotherapy 7 mg/kg i.v. x5,3/8
same,GDF4,FaDuDD tumors [2]; [3],2.2
same,T4T,FaDuDD tumors [2]; [3],23.2 days
same,T/C (d 19),FaDuDD tumors [2]; [3],59%
same,GDF4,FaDuDD tumors [2]; [4],2.3
same,T4T,FaDuDD tumors [2]; [4],24.8 days
same,T/C (d 19),FaDuDD tumors [2]; [4],27%
